Patent publication US20230190707A1, “COMPOSITIONS AND METHODS FOR ENHANCING CANCER IMMUNOTHERAPY” (FRED HUTCHINSON CANCER CENTER, priority 2020, published 2023)

Tests used:
CD5^+ splenic T cells = assay: Anti-CD3/CD28 T cell activation and proliferation (CFSE); type: cell-based, mouse
Description: Cell lines were grown with half-log10 concentrations of the indicated drug in 4 to 8 technical replicates under standard conditions until the control condition (DMSO or vehicle) was confluent by microscopy. For tumor cell lines, viable cells were quantified via the CellTiter-Glo® assay (Promega Cat. G7573) as per manufacturer instructions. For the ex vivo proliferation of T cells, viable cells were instead quantified via flow cytometry using counting beads. The percentage or number of viable cells with drug treatment was calculated relative to DMSO control (as 100%). […] For absolute cell number, Annexin V+, CD25+, and PD1+ flow cytometry data presented in Figure S4, dose-response models and IC50 values were computed using the R language's dre package (Ritz, C., et al. (2015). Dose-Response Analysis Using R. PLoS One 10, e0146021).
Plates were coated with 10 μg/mL anti-CD3 (clone 145-2C11, Biolegend Cat. 100302) and 2 μg/mL anti-CD28 (clone 37.51, Biolegend Cat. 102102) in PBS overnight at 4° C. and washed twice with cold PBS prior to use. CFSE-labeled CD5-selected splenic T cells from naïve C57BL/6J mice were obtained identically as for adoptive cell transfer, and 5×10^4 cells incubated with coated plates in the presence of splicing inhibitor drugs at the indicated concentrations, followed by analysis by standard flow cytometry on day 3. Of note, for RNA-seq analyses, T cells were not labeled with CFSE, and underwent activation for 4 days (96 hours) in the presence of various splicing modulator drugs to harmonize experimental conditions with RNA-seq analyses of tumors treated with splicing inhibitors. For the RNA-seq experiments only, T cells in all conditions were also incubated with IL-2 at 50 U/mL to maximize viability and yield.

[1] = test system: OT-1 transgenic T cells against ovalbumin (OVA)-expressing B16-F10 cells; assay: OT-1 cytotoxicity assay; type: cell-based, mouse; details: 18 hours; minimal impairment at doses less than 4 μM
Description: Bulk splenocytes from OT-1 animals were cultured for three days with 100 U/mL murine IL-2 and 100 μg/mL SIINFEKL (SEQ ID NO:1) peptide to activate CD8^+ T cells. Cultures were subsequently washed thoroughly to remove ova peptide and rested for at least 24 hours prior to use. OT-1 cells were passaged in T cell media with 50 U/mL IL-2 for no more than seven days from animal sacrifice prior to use. For the cytotoxicity assay, tumor cells alone or OT-1+tumor cells (1:1 ratio) were incubated in T cell media for 18 hours under standard conditions with the indicated concentrations of splicing drugs and analyzed by flow cytometry to quantify killing. OT-1 cells and other hematopoietic cells were excluded with the use of CD45, CD3, and CD8 staining. Tumor cell viability was measured using DAPI.

[2] = test system: B16-F10, MB49, MC38, and CT26; assay: RNA-seq splicing analysis, mouse tumor cell lines; type: cell-based; details: doses that did not affect tumor cell growth in vitro
Description: Unless otherwise specified, cell lines were treated with splicing inhibitors at the indicated concentrations for 96 hours in vitro, harvested and washed three times with PBS in excess to remove all drug, and then used for downstream analyses and/or subsequent studies, including phenotyping, RNA-seq analyses, continued growth in vitro, or tumor challenge in vivo into syngeneic animals.
(§1) Bulk lung and colon were homogenized using a Qiagen TissueRuptor. For all tissues and cell types, RNA was extracted using an RNeasy kit (Qiagen, Frederick, Md.) and quantified using a NanoDrop 8000 (ThermoFisher Scientific). A minimum of 500 ng of high-quality RNA (as determined by Agilent Bioanalyzer) per sample or replicate was used for library preparation. Poly(A)-selected, strand-specific (dUTP method) Illumina libraries were prepared with a modified TruSeq protocol and sequenced on the Illumina HiSeq 2000 (˜100M 2×101 bp paired-end reads per sample or replicate).
RNA-seq analysis was performed as previously described (Dvinge, H., et al. (2014). Sample processing obscures cancer-specific alterations in leukemic transcriptomes. Proc Natl Acad Sci USA 111, 16802-16807, incorporated herein by reference in its entirety). […] Aligned reads from these two mapping steps were merged to generate final BAM files for all subsequent analyses. […]

[3] = test system: 501-MEL, A375, and SK-MEL-239; assay: RNA-seq splicing analysis, human tumor cell lines; type: cell-based; details: identical treatment
Description: as §1
RNA-seq analysis was performed as previously described (Dvinge, H., et al. (2014). Sample processing obscures cancer-specific alterations in leukemic transcriptomes. Proc Natl Acad Sci USA 111, 16802-16807, incorporated herein by reference in its entirety). […] Aligned reads from these two mapping steps were merged to generate final BAM files for all subsequent analyses.
MISO v2.0 was used to quantify all expression of isoforms arising from exon skipping (cassette exons), competing 5′ splice site selection, competing 3′ splice site selection, and annotated intron retention. […]

Structure (SMILES)	T cell apoptosis and activation markers (CD5^+ splenic T cells)	in vitro cytotoxicity of primed OT-1 T cells against OVA-expressing B16-F10 cells [1]	splicing changes in mouse tumor cell lines [2]	splicing changes in human cancer cells [3]	IC50 (CD5^+ splenic T cells; Mus musculus, T-cell, 72 h, three days of continuous drug exposure, read-out: IC50 values, T cell proliferation following stimulation) [µM]
CC(C)Oc1ccc(-c2c[nH]cc2CN(C)CCN)cc1 [MS-023]	much milder effects	minimally impaired	dramatic changes in both alternative and constitutive splicing	stereotyped and pervasive splicing changes	–
NS(=O)(=O)c1ccc(S(=O)(=O)Nc2cccc3c(Cl)c[nH]c23)cc1 [indisulam]	much milder effects	minimally impaired	dramatic changes in both alternative and constitutive splicing	stereotyped and pervasive splicing changes	1 to 10
